# According to patent US5968823A, “Glycine transporter-transfected avian cells and uses thereof” (Allelix Neuroscience Inc., priority 1998, dated 1999):
# Where two headings read alike, the source gives them in different places.
# Columns and labels:
# [1] = target: glycine site on the NMDA receptor; assay: [3H]MK-801 binding test operated to identify antagonists of the NMDA-glycine site; conditions: rat cortex/hippocampus membranes; glutamate 10 μM, glycine 200 nM, 2.5 nM [3H]MK-801, 1 hour room temperature; FIG. 2A; read-out: concentration of antagonist resulting in about a 50% effect on [3H]MK-801 binding
# Description: Sterner and Calligaro, Soc. Neurosci.
# The membrane preparation included the following steps:
# 1. Sacrifice and decapitate four rats; remove cortices and hippocampi.
# 3. Centrifuge tissue at 1000×g, 10 minutes. Save supernatant.
# 4. […] Discard the supernatant.
# 5. […] Stir the suspension on ice for one hour.
# 6. […] Leave on ice for 20 minutes.
# The final volume of the assay was 200 μl.
# NMDA receptor = assay: Calcium flux (45Ca++ accumulation) in primary neuronal cortical cell cultures; format: cell-based, rat; conditions: L-689,560 50 μM with NMDA 500 μM; 10 minutes room temperature; FIG. 3
# Description: A functional ion-flux assay used to measure the effect of compounds identified by the present invention relates to the ability to enhance or inhibit calcium flux through the NMDA receptor. This test is performed on suitable cell cultures that have membrane-bound NMDA receptors and glycine transporters. Such cells include neuronal cells generally, including those of the central nervous system, including brain, and cell lines derived therefrom, and any other cell that has been induced or transfected to express NMDA receptors. Calcium used in such a test is commonly the ^45 Ca isotope, although other calcium measuring techniques can be used as well, such as calcium-associated fluorescence and the like. However the calcium is monitored, calcium flux is enhanced or inhibited as a result of the discrete addition of a compound of the present invention. An advantage of this system is that it allows one to monitor the net effect on NMDA receptor function of a compound that interacts with the glycine site on the NMDA receptor and the glycine transporter.
# This example illustrates a protocol for measuring calcium flux in primary neuronal cells, which is an indication of NMDA receptor activation. […]
# The tissue was chopped with a scalpel and then triturated with a glass pipet that had been fire polished. […] Cells were counted in a suitable counting chamber. […]
# GlyT-1c = target: T1, GlyT-1c (Homo sapiens, UniProt P48067); assay: Inhibition of [3H]glycine uptake in QT-6 cells transiently transfected with GlyT-1c; format: cell-based; conditions: for selectivity GlyT-1c relative to GlyT-2: comparison of pIC50 at GlyT-1c and GlyT-2 in transfected QT-6 cells
# T1 construct: expressed in transfected cells; host or cells: QT-6 quail fibroblast cells (ATCC CRL-1708), transient transfection
# T1 sequence (P48067 1-706): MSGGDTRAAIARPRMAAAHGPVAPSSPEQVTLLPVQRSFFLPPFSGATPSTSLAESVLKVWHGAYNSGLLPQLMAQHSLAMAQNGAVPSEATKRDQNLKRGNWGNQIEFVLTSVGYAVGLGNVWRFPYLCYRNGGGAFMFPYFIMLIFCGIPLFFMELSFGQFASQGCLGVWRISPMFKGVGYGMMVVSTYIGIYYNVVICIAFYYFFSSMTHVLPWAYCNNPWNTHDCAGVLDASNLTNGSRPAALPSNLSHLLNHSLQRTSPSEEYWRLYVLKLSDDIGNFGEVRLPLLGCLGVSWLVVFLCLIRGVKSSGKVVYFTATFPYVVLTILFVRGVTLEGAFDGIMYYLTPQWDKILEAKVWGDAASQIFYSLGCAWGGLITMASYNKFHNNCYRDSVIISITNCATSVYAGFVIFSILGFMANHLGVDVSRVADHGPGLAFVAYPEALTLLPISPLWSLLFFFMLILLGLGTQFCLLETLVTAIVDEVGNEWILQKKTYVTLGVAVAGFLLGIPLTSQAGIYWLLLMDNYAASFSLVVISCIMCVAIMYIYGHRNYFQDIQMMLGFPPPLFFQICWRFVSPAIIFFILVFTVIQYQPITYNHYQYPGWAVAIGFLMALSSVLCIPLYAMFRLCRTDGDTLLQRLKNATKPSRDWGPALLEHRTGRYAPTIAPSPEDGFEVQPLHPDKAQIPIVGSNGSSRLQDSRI
# Description: (§1) This example sets forth methods and materials used for growing and transfecting QT-6 cells.
# The human GlyT-1c (hGlyT-1c) clone used contains the sequence of hGlyT-1c [SEQ ID NO:3] from nucleotide position 213 to 2336 cloned into the pRc/CMV vector (Invitrogen) as a Hind III-Xba I fragment as described in Kim et al., supra. The Hind III-Xba fragment of hGlyT-1c from this clone was then subcloned into the pRc/RSV vector. Transfection experiments were performed with GlyT-1c in both the pRc/RSV and pRc/CMV expression vectors.
# (§2) The following four day procedure for the tranfections was used:
# (§3) On day 1, QT-6 cells were plated at a density of 1×10^6 cells in 10 ml of complete QT-6 medium in 100 mm dishes.
# (§4) On day 2, the medium was aspirated and the cells were washed with 10 ml of PBS followed by 10 ml of TBS. The TBS was aspirated, then 1 ml of the DEAE/DNA mix was added to the plate. The plate was swirled in the hood every 5 minutes. After 30 minutes, 8 ml of 80 μM chloroquine in QT-6 medium was added and the culture was incubated for 2.5 hours at 37° C. and 5% CO2. The medium was then aspirated and the cells were washed two times with complete QT-6 medium, then […] complete QT-6 medium was added and the cells were returned to the incubator.
# (§5) On day 3, the cells were removed with trypsin/EDTA as described above, and plated into the wells of 96-well assay plates at approximately 2×10^5 cells/well.
# (§6) On day 4, glycine transport was assayed as described in Example 2.
# (§7) This example illustrates a method for the measurement of glycine uptake by transfected cultured cells.
# (§8) Transient GlyT-transfected cells or control ("mock") cells grown in accordance with Example 1 were washed three times with HEPES buffered saline (HBS). The mock cells were treated precisely as the GlyT-transfected cells except that the transfection procedure omitted any cDNA. The cells were incubated 10 minutes at 37° C., after which a solution was added containing 50 nM [^3 H] glycine (17.5 Ci/mmol) and either (a) no potential competitor, (b) 10 mM nonradioactive glycine or (c) a concentration of a candidate drug. […] The cells were then incubated another 20 minutes at 37° C., after which the cells were aspirated and washed three times with ice-cold HBS. The cells were harvested, scintillant was added to the cells, the cells were shaken for 30 minutes, and the radioactivity in the cells was counted using a scintillation counter. Data were compared between the cells contacted or not contacted by a candidate agent, and between cells having GlyT-1 activity versus cells having GlyT-2 activity, depending on the assay being conducted.
# GlyT-2 = target: T2, GlyT-2 (Rattus norvegicus, UniProt P58295); assay: Inhibition of [3H]glycine uptake in QT-6 cells transiently transfected with GlyT-2; format: cell-based
# T2 construct: expressed in transfected cells; host or cells: QT-6 quail fibroblast cells (ATCC CRL-1708), transient transfection
# T2 sequence (P58295 1-799): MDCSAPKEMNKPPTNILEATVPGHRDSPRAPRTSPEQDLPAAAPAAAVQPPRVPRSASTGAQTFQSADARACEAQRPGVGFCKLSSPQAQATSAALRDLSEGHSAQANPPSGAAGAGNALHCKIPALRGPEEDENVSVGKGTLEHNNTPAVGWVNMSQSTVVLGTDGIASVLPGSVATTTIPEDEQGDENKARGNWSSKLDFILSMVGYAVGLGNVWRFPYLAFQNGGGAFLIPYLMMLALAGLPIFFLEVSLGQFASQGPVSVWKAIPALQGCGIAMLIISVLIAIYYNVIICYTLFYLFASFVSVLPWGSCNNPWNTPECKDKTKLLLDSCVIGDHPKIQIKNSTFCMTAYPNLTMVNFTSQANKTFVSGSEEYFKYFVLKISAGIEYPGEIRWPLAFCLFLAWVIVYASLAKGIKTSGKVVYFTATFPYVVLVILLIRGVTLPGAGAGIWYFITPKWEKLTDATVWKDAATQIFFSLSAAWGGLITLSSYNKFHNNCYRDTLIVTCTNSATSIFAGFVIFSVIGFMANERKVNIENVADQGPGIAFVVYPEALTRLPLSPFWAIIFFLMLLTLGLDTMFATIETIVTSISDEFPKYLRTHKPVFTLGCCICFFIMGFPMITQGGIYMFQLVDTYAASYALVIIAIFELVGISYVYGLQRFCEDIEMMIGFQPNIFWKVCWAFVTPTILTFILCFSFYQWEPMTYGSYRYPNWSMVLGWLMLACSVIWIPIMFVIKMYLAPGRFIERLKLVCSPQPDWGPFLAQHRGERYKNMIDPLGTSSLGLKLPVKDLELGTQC
# Description: as §1, §2, §3, §4, §5, §6, §7, §8
# [2] = target: glycine site on the NMDA receptor; conditions: read-out: concentration of agonist resulting in about a 50% effect on [3H]MK-801 binding; rat cortex/hippocampus membranes; glutamate 10 μM, 2.5 nM [3H]MK-801, 1 hour room temperature; FIG. 2B
# Description: In particular, compounds having agonist activity in this assay enhance MK-801 binding; conversely, compounds having antagonist activity inhibit MK-801 binding.
# Preparation of membranes for the binding test required application of a series of standard methods. Unless otherwise specified, tissues and homogenates were kept on ice and centrifugations were conducted at 4° C. Homogenizations were conducted with an effort to minimize resulting rise in tissue/homogenate temperature. The membrane preparation included the following steps:
# Homogenize tissue in twenty volumes of 0.32 M sucrose/5 mM Tris-Acetate (pH 7.4) with 20 strokes of a glass/teflon homogenizer.
# Centrifuge tissue at 1000×g, 10 minutes. Save supernatant. Resuspend pellet in small volume of buffer and homogenize again. Centrifuge the homogenized pellet and combine the supernatant with the previous supernatant.
# Centrifuge the combined supernatants at 40,000×g, for 30 minutes. Discard the supernatant. […]
# The assay was started by the addition of 2.5 nM [^3 H]MK-801 (23.9 Ci/mmol), which binds to the ion channel associated with NMDA receptors. […] Bound radioactivity was separated from free by filtration, using a TOMTEC harvester. Antagonist activity was indicated by decreasing radioactivity associated with the NMDA receptor with increasing concentration of the tested ligand.
# [3] = QT-6 cells transfected with GlyT-1c, 50 nM [3H]glycine, 20 min at 37° C, read-out: Effect Via GlyT-1c, pIC50 (converted)
# [4] = QT-6 cells transfected with GlyT-2, 50 nM [3H]glycine, 20 min at 37° C, read-out: Effect Via GlyT-2, pIC50 (converted)
SMILES,IC50 (GlyT-1c; [3]) [µM],selectivity GlyT-1c relative to GlyT-2 (GlyT-1c),IC50 (GlyT-1c) [µM],IC50 (GlyT-2) [µM],further results
"O=C(Nc1ccccc1)N[C@@H]1C[C@@H](C(=O)O)Nc2cc(Cl)cc(Cl)c21 (relative stereo) [L-689,560]",–,–,–,–,IC50 [1]: ~0.5 µM; blockade of NMDA-caused accumulation of 45Ca++ (NMDA receptor): blocked
Clc1ccc(C(c2ccc(Cl)cc2)n2cc[n+](CC(OCc3ccc(Cl)cc3Cl)c3ccc(Cl)cc3Cl)c2)cc1 (stereo not shown) [ZA],0.912,selective for GlyT-1c relative to GlyT-2,–,–,IC50 (GlyT-2; [4]): 3.09 µM
CC(C)(C)c1ccc(C(O)CCCN2CCC(C(O)(c3ccccc3)c3ccccc3)CC2)cc1 (stereo not shown) [ZB],–,selective for GlyT-1c relative to GlyT-2,4.27,17,–
CC(Cc1ccccc1)NCCC(c1ccccc1)c1ccccc1 (stereo not shown) [ZC],–,selective for GlyT-1c relative to GlyT-2,6.46,14.1,–
CSc1ccc2c(c1)N(CCC1CCCCN1C)c1ccccc1S2 (stereo not shown) [ZD],9.55,–,–,–,–
CC(NCCC(c1ccccc1)c1ccccc1)c1ccccc1 (stereo not shown) [ZE],–,selective for GlyT-1c relative to GlyT-2,12.9,20.9,–
CN1CCC(=C2c3ccccc3CCc3ccccc32)CC1 [ZF],21.4,reverse selectivity,–,–,IC50 (GlyT-2; [4]): 14.5 µM
NCC(=O)O [glycine],–,–,–,–,EC50 [2]: ~1 µM
